Holding throughout (experiment): biochemical
The target of experiment [1] is T1, α-1d adrenoreceptor (Rattus norvegicus, UniProt P23944).
T1 sequence (P23944 1-561): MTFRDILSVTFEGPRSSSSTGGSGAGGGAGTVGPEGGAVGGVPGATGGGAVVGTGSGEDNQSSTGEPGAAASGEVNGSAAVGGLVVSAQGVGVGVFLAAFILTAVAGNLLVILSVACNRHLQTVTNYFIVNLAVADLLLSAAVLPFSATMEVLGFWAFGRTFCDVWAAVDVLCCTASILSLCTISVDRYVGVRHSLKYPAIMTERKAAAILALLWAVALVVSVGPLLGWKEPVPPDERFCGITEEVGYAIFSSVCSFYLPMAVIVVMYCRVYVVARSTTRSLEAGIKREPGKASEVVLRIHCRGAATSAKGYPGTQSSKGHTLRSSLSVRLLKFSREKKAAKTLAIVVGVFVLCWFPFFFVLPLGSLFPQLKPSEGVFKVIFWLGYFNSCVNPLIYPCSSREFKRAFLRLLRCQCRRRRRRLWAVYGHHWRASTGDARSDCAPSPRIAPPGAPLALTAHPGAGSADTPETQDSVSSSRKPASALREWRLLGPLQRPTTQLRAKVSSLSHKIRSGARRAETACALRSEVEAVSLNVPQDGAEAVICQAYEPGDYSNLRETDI
The experiment is classed as binding. The note with it: read-out: Radioligand Binding (Ki, nM) 1d (Rat). The text has this: (§1) The cDNA clones encoding the α-1 adrenoreceptors (α-1a, α-1b, and α-1d) were obtained from TULCO (Triangle Universities Licensing Consortium, Research Triangle Park, NC) and inserted into the eukaryotic expression vector SnaB30. In this vector, expression of the adrenoreceptor gene is under the transcriptional control of an SV40 early promoter. Positive drug selection is provided by a neomycin-resistance gene. Mouse fibroblast cells (LTK) were transfected with the α1 expression plasmids and grown in Dulbecco's modified Eagle's medium (DMEM) containing 10% fetal calf serum and 30 µM G418. Stable G418-resistant parental lines were generated, with successful expression of adrenoreceptor protein monitored using radioligand binding techniques. Stable single cell clones derived from the parental lines were screened in adrenoreceptor binding assays to identify clones having high adrenoreceptor density. Roller bottle cultures of the cloned lines were used to provide cell membranes for subsequent adrenoreceptor binding characterization studies. A cell line containing the SnaB30 vector expressing the human erythropoietin gene served as a negative control.
(§2) For adrenoreceptor binding assays, large scale membrane preparations were utilized in which 6 million cells were seeded into small (450 cm^2) Corning tissue culture roller bottles. 200 mL of DMEM containing 10% fetal calf serum and 300 µM G418 were added to each roller bottle. A 95% air / 5% CO2 gas mixture (sterile) was injected into each roller bottle prior to sealing. The bottles were then incubated at 37 °C on a roller rack for 5 days. Cells were re-fed with fresh medium after 3 days in culture.
(§3) On the fifth day of culture, growth medium was removed from cells grown in roller bottles, and the cells were washed twice with PBS (Sigma, 120 mM NaCl, 2.7 mM KCl, 10 mM Na2HPO4-NaH2PO4, pH = 7.4). Cells were detached from the roller bottles by incubating for 15 minutes at 37 °C in a Tris-EDTA solution (10 mM Tris, 100 mM NaCl, 1 mM EDTA, pH = 7.4). The cell suspension from each roller bottle was decanted into tared centrifuge tubes and kept on ice. An aliquot of each cell suspension was generally taken for cell counting. Cells were centrifuged at 3000 X G for 5 min at 2-4 °C, washed with PBS and recentrifuged. The supernatant was decanted and the pellet weighed to determine the wet weight of cells. Cells were washed a final time in 40 vol 5 mM Tris-HCl, 5 mM EDTA, pH = 7.7, and centrifuged at 40,000 X G for 10 minutes. Cells were homogenized in 10 mL of 50 mM Tris-HCl, 5 mM EDTA (pH = 7.4) and diluted to 40 mL/tube. Homogenates were centrifuged at 40,000 X G for 10 minutes. The supernatant was decanted and the pellets rehomogenized in 50 mM Tris-HCl (pH = 7.4) and centrifuged as before. The supernatant was decanted and the homogenate resuspended in 6.25 volumes (per gram wet weight) of 50 mM Tris-HCl and aliquots of the pooled homogenates frozen in liquid N2 and stored at -70 °C until the time of assay. Rat submaxillary glands were used for α-1A adrenoreceptors and were prepared essentially as described (Michel, A. D., Loury, D. N. and Whiting, R. L., Brit. J. Pharmacol. 98: 83-889 (1989)).
(§4) Receptor binding assays for α-1 adrenoreceptors were performed essentially as described by Greengrass and Bremner (Eur. J. Pharmacol. 55: 323-326 (1979)). […] Radioactivity was determined by standard liquid scintillation techniques. Data were analyzed as previously described (Hancock, A. A., Kyncl, J. J., Martin, Y. C. and DeBernardis, J. F., J. Receptor Res. 8: 23-46 (1988)).

Experiment [2] addresses T2, α-1A adrenoreceptor (rat submaxillary gland) (Rattus norvegicus, UniProt P43140).
T2 sequence (P43140 1-466): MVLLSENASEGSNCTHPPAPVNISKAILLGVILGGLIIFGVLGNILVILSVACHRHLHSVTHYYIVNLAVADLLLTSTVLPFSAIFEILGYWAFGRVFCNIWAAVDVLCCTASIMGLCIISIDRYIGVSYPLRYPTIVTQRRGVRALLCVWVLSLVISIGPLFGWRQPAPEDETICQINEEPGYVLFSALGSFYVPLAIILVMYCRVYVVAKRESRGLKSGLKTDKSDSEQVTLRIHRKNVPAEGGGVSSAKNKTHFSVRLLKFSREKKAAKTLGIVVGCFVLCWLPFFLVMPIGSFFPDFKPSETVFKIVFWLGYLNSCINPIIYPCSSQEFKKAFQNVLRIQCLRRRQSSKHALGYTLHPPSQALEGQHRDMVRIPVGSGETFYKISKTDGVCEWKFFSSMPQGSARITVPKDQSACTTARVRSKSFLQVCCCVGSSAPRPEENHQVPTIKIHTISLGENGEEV
Type of experiment: binding. The note with it: read-out: Radioligand Binding (Ki, nM) 1A (Rat). The method, then:
Additionally, binding affinity against the pharrnacologically defined α-1A adrenoreceptor (rat submaxillary gland) was measured.
as §3, §4

In experiment [3] the target is T3, α-1a adrenoreceptor (Bos taurus, UniProt P18130).
T3 sequence (P18130 1-466): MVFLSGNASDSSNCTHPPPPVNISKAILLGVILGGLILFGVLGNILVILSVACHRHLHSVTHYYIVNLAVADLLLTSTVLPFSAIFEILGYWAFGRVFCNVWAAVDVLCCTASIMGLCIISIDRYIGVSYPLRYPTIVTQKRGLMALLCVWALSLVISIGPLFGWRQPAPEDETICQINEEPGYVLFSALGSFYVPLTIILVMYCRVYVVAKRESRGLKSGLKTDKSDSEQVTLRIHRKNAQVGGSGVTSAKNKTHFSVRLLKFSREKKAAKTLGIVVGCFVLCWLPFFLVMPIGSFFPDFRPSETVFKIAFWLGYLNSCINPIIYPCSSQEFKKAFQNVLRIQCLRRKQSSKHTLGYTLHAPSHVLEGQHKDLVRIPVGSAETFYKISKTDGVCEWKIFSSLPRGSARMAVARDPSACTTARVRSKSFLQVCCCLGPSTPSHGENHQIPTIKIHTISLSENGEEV
Type of experiment: binding, bovine. As to conditions: read-out: Radioligand Binding (Ki, nM) 1a (Bovine).
Excerpt: as §1, §2, §3, §4

Experiment [4] concerns the target T4, α-1b adrenoreceptor (Mesocricetus auratus, UniProt P18841).
T4 sequence (P18841 1-515): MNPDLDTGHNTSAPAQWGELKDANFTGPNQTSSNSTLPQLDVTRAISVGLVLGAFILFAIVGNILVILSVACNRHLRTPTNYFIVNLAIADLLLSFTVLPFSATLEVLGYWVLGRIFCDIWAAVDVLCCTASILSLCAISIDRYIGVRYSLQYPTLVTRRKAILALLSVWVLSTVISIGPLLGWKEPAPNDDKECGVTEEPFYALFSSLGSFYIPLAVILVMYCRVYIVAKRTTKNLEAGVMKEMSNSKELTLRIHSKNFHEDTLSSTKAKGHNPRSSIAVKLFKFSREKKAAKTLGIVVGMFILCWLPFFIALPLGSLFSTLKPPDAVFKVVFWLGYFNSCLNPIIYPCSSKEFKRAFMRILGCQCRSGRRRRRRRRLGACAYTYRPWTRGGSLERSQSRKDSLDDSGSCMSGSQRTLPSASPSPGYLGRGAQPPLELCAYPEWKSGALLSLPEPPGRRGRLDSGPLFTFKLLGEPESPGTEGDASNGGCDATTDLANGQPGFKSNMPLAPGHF
Type of experiment: binding, hamster. The note with it: read-out: Radioligand Binding (Ki, nM) 1b (Hamster).
Excerpt: as §1, §2, §3, §4

Setting [5] is: [3H]-prazosin radioligand, cloned receptor in LTK cell membranes.
Setting [6] is: [3H]-prazosin radioligand, rat submaxillary gland membranes.

Structures can show the parent of a compound that is named as a salt. Where two headings read alike, the source gives them in different places.

One may read the Ki as a measure of affinity in units of concentration, obtained from inhibition or displacement. On to `COc1cc2[nH]c(=O)n(CCCCN3C[C@@H]4COc5cccc(OC)c5[C@@H]4C3)c(=O)c2cc1OC` (racemic) [Example 79, 3-[4-((±)-cis-9-Methoxy-1,2,3,3a,4,9b-hexahydro-[1]-benzopyrano[3,4-c]pyrrol-2-yl)butyl]-6,7-dimethoxy-quinazoline-2,4(1H,3H)-dione hydrochloride], for which the Ki in experiment [1] was determined as 0.361 nM; in experiment [2] it was 0.199 nM; in experiment [3], 0.174 nM; in experiment [4], 0.821 nM.
Turning to `COc1cc2[nH]c(=O)n(CCCCN3C[C@@H]4COc5ccccc5[C@H]4C3)c(=O)c2cc1OC` (racemic) [Example 80, 3-[4-((±)-trans-1,2,3,3a,4,9b-hexahydro-[1]-benzopyrano[3,4-c]pyrrol-2-yl)butyl]-6,7-dimethoxy-quinazoline-2,4(1H,3H)-dione hydrochloride], the Ki came to 0.765 nM in experiment [1], 0.442 nM in experiment [2], 0.17 nM in experiment [3] and 2.5 nM in experiment [4].
In the case of `COc1cc2[nH]c(=O)n(CCCN3CC[C@H]4c5c(OC)cccc5OC[C@@H]4C3)c(=O)c2cc1OC` (racemic) [Example 83, 3-[3-(±)-trans-10-Methoxy-1,3,4,4a,5,10b-hexahydro-2H-[1]-benzopyrano[3,4-c]pyrido-3-yl)propyl]-6,7-dimethoxy-quinazoline-2,4(1H,3H)-dione hydrochloride], the Ki is 0.807 nM in experiment [1] (setting [5]), 0.383 nM in experiment [2] (setting [6]), 0.217 nM in experiment [3] (setting [5]) and 3.07 nM in experiment [4] (setting [5]).
Regarding `COc1cc(O)cc2c1[C@@H]1CN(CCCCn3c(=O)[nH]c4c(sc5ncc(-c6ccccc6)nc54)c3=O)C[C@@H]1CO2` (relative stereo) [Example 104, 3-[4-(-cis-7-Hydroxy-9-methoxy-1,2,3,3a,4,9b-hexahydro-[1]-benzopyrano[3,4-c]pyrrol-2-yl)butyl]-8-phenyl-pyrazino[2',3':4,5]thieno[3,2-d]pyrimidine-2,4(1H,3H)-dione], the Ki was found to be 5.2 nM in experiment [1] (setting [5]), 3.59 nM in experiment [2] (setting [6]), 0.427 nM in experiment [3] (setting [5]) and 266 nM in experiment [4] (setting [5]).
In the same order, the values of `COc1cccc2c1[C@H]1CN(CCCCn3c(=O)[nH]c4c(sc5cccnc54)c3=O)C[C@@H]1CO2` [Example 4, 3-[4-((3aR,9bS)-trans-9-Methoxy-1,2,3,3a,4,9b-hexahydro-[1]-benzopyrano[3,4-c]pyrrol-2-yl)butyl]-pyrido[2',3':4,5]thieno[3,2-d]pyrimidine-2,4(1H,3H)-dione hydrochloride] are 0.377 nM, 0.097 nM, 0.049 nM and 0.867 nM.
Turning to `COc1cccc2c1[C@H]1CN(CCCCn3c(=O)[nH]c4c(sc5c(Cl)ccnc54)c3=O)C[C@@H]1CO2` [Example 5, 3-[4-((3aR,9bS)-trans-9-Methoxy-1,2,3,3a,4,9b-hexahydro-[1]-benzopyrano[3,4-c]pyrrol-2-yl)butyl]-6-chloro-pyrido[2',3':4,5]thieno[3,2-d]pyrimidine-2,4(1H,3H)-dione dihydrochloride], the inhibitory constant (Ki) in experiment [1] (setting [5]) was 0.638 nM; in experiment [2] (setting [6]), 0.268 nM; in experiment [3] (setting [5]), 0.086 nM; in experiment [4] (setting [5]) it was 2.01 nM.
In the same order, the values of `COc1cccc2c1[C@H]1CN(CCCCn3c(=O)[nH]c4c(sc5ccc(Cl)nc54)c3=O)C[C@@H]1CO2` [Example 6, 3-[4-((3aR,9bS)-trans-9-Methoxy-1,2,3,3a,4,9b-hexahydro-[1]-benzopyrano[3,4-c]pyrrol-2-yl)butyl]-8-chloro-pyrido[2',3':4,5]thieno[3,2-d]pyrimidine-2,4(1H,3H)-dione dihydrochloride] are 0.302 nM, 0.409 nM, 0.173 nM and 2 nM.

Values taken from patent EP0942911B1, “BENZOPYRANOPYRROLE AND BENZOPYRANOPYRIDINE ALPHA-1 ADRENERGIC COMPOUNDS” (Abbott Laboratories, priority 1996, dated 1998).
